pIC50: −log10 of the molar value. Where a SMILES comes first, the peptide text is derived from it. Where no end group is shown, it is not given here. [ ]: non-standard residue; d: D form. Abu = CC[C@H](N)C(=O)O
Legend:
[1] = test system: peptide-pulsed target cells and transfected cells endogenously expressing the antigen; assay: Recall CTL responses of PBMCs from ovarian cancer patients; assay type: cell-based, human; conditions: for CTL Tumor / CTL Wildtype: data from ovarian cancer patients; for recognition by CTLs from cancer patient PBMCs: two patients with ovarian cancer, peptide-pulsed targets and transfected cells
Excerpt: Immunogenicity was additionally confirmed using PBMCs isolated from cancer patients. Briefly, PBMCs were isolated from two patients with ovarian cancer, re-stimulated with peptide-pulsed monocytes and assayed for the ability to recognize peptide-pulsed target cells as well as transfected cells endogenously expressing the antigen.

HLA-A*3101 = HLA-A*3101 (Homo sapiens, UniProt P04439, A270S/D185E/E176V/E277Q/F33T/G231S/G80R/H175R/I121M/I218V/I322F/K168Q/L300P/L318F/M331R/P217A/Q94H/R138Q/T323A/T345S/T97I/V358M); assay type: binding; conditions: Table XXIII, HLA-A3 supermotif-bearing peptides
HLA-A*6801 = HLA-A*6801 (Homo sapiens, UniProt P04439, A269V/D185E/E176V/E277Q/E87N/F33Y/G231S/I121M/I166T/I218V/L180W/L300P/L318F/N151K/P208A/P217A/Q86R/R169H/T345S); assay type: binding; conditions: Table XXIII, HLA-A3 supermotif-bearing peptides
HLA-A*0301 = HLA-A*0301 (Homo sapiens, UniProt P04439); assay type: binding; conditions: Table XXIII, HLA-A3 supermotif-bearing peptides
[2] = test system: A3-supertype alleles (A*0301, A*1101, A*3101, A*3301, A*6801); assay: A3-supertype cross-reactive binding; design: species or system human; conditions: of five A3-supertype alleles tested
HLA-A*1101 = HLA-A*1101 (Homo sapiens, UniProt P04439, A114D/D185E/E176A/F33Y/L180Q/S129P/T187R); assay type: binding; conditions: Table XXIII, HLA-A3 supermotif-bearing peptides
Sequence of HLA-A*1101 (P04439 25-365 limits assumed, stated change not applied): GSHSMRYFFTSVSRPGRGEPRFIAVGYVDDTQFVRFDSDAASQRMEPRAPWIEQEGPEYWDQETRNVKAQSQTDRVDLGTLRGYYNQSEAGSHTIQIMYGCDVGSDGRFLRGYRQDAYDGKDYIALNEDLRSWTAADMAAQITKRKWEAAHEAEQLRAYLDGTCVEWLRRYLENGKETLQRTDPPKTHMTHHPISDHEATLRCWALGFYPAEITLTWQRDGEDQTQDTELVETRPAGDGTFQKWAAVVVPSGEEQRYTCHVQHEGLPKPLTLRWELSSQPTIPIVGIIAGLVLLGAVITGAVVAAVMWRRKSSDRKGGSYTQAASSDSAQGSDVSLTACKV

HLA-A*3301 = HLA-A*3301 (Homo sapiens, UniProt P04439, A270S/D185E/E176V/E277Q/E87N/F33T/G231S/H175R/I121M/I218V/I322F/K168Q/K210R/L300P/L318F/M331R/P217A/Q86R/Q94H/R138Q/T323A/T345S/T97I/V358M/Y195H); assay type: binding; conditions: Table XXIII, HLA-A3 supermotif-bearing peptides

| Compound | CTL Tumor [1] | CTL Wildtype [1] | recognition by CTLs from cancer patient PBMCs [1] | pIC50 (HLA-A*3101) | pIC50 (HLA-A*6801) | pIC50 (HLA-A*0301) | No. of A3 Alleles Crossbound [2] | pIC50 (HLA-A*1101) | pIC50 (HLA-A*3301) |
| --- | --- | --- | --- | --- | --- | --- | --- | --- | --- |
| CC(C)C[C@H](NC(=O)[C@@H](N)Cc1c[nH]cn1)C(=O)N[C@@H](Cc1ccc(O)cc1)C(=O)N[C@@H](CCC(N)=O)C(=O)NCC(=O)N[C@@H](CS)C(=O)N[C@@H](CCC(N)=O)C(=O)N[C@H](C(=O)N[C@H](C(=O)O)C(C)C)C(C)C | 1/2 | 2/2 | – | – | – | – | – | – | – |
| CC[C@H](C)[C@H](N)C(=O)N[C@@H](CC(C)C)C(=O)N[C@@H](Cc1c[nH]cn1)C(=O)N[C@@H](CC(N)=O)C(=O)NCC(=O)N[C@@H](C)C(=O)N[C@@H](Cc1ccc(O)cc1)C(=O)N[C@@H](CO)C(=O)N[C@@H](CC(C)C)C(=O)O | 2/2 | 2/2 | – | – | – | – | – | – | – |
| CSCC[C@H](NC(=O)[C@@H](N)C(C)C)C(=O)N[C@@H](C)C(=O)NCC(=O)N[C@H](C(=O)NCC(=O)N[C@@H](CO)C(=O)N1CCC[C@H]1C(=O)N[C@@H](Cc1ccc(O)cc1)C(=O)N[C@H](C(=O)O)C(C)C)C(C)C | 1/2 | 1/2 | – | – | – | – | – | – | – |
| CC(C)C[C@H](NC(=O)[C@@H](N)Cc1c[nH]cn1)C(=O)N[C@@H](Cc1ccc(O)cc1)C(=O)N[C@@H](CCC(N)=O)C(=O)NCC(=O)N[C@@H](CS)C(=O)N[C@@H](CCC(N)=O)C(=O)N[C@H](C(=O)N[C@H](C(=O)O)C(C)C)C(C)C [Her2/neu.48] | – | – | recognized in 2 donors | – | – | – | – | – | – |
| CC[C@H](C)[C@H](NC(=O)[C@H](CC(C)C)NC(=O)[C@@H](N)C(C)C)C(=O)N[C@@H](CCC(N)=O)C(=O)N[C@@H](CCCNC(=N)N)C(=O)N[C@@H](CC(N)=O)C(=O)N1CCC[C@H]1C(=O)N[C@@H](CCC(N)=O)C(=O)N[C@@H](CC(C)C)C(=O)O [Her2/neu.153] | – | – | recognized peptide-pulsed targets only | – | – | – | – | – | – |
| CC[C@H](NC(=O)CNC(=O)CNC(=O)[C@H](C)NC(=O)[C@H](CC)NC(=O)[C@@H](NC(=O)[C@@H](N)[C@@H](C)O)C(C)C)C(=O)N[C@@H](C)C(=O)N[C@@H](CCCCN)C(=O)O [Her2/neu.218.B3B7K9] (H-TV[Abu]AGG[Abu]AK-OH) | – | – | – | < 5.00 | 8.14 | 7.62 | 3 | 7.54 | < 5.00 |
| CC[C@H](NC(=O)CNC(=O)CNC(=O)[C@H](C)NC(=O)[C@H](CC)NC(=O)[C@@H](NC(=O)[C@@H](N)[C@@H](C)O)C(C)C)C(=O)N[C@@H](C)C(=O)N[C@@H](CCCNC(=N)N)C(=O)O [Her2/neu.218.B3B7] (H-TV[Abu]AGG[Abu]AR-OH) | – | – | – | 6.61 | 8.10 | 6.50 | 5 | 6.95 | 6.62 |
| CC(C)[C@H](NC(=O)[C@@H](N)[C@@H](C)O)C(=O)N[C@@H](CS)C(=O)N[C@@H](C)C(=O)NCC(=O)NCC(=O)N[C@@H](CS)C(=O)N[C@@H](C)C(=O)N[C@@H](CCCNC(=N)N)C(=O)O [Her2/neu.218] | – | – | – | 6.89 | 7.08 | < 5.00 | 4 | 6.58 | 6.49 |
| CC[C@H](C)[C@H](NC(=O)[C@@H](N)CCCCN)C(=O)N[C@@H](Cc1ccccc1)C(=O)NCC(=O)N[C@@H](CO)C(=O)N[C@@H](CC(C)C)C(=O)N[C@@H](C)C(=O)N[C@@H](Cc1ccccc1)C(=O)N[C@@H](CC(C)C)C(=O)O [Her2/neu.369] | – | – | recognized in 2 donors | – | – | – | – | – | – |
| CC[C@H](C)[C@H](N)C(=O)N[C@@H](CC(C)C)C(=O)N[C@@H](Cc1c[nH]cn1)C(=O)N[C@@H](CC(N)=O)C(=O)NCC(=O)N[C@@H](C)C(=O)N[C@@H](Cc1ccc(O)cc1)C(=O)N[C@@H](CO)C(=O)N[C@@H](CC(C)C)C(=O)O [Her2/neu.435] | – | – | recognized in 2 donors | – | – | – | – | – | – |
| CC[C@H](C)[C@H](N)C(=O)N[C@H](C(=O)N[C@@H](Cc1c[nH]c2ccccc12)C(=O)N[C@@H](CC(C)C)C(=O)NCC(=O)N[C@@H](CC(C)C)C(=O)N[C@@H](CCCNC(=N)N)C(=O)N[C@@H](CO)C(=O)N[C@@H](CC(C)C)C(=O)N[C@@H](CCCCN)C(=O)O)C(C)C [Her2/neu.450.V2K10] | – | – | – | 6.56 | 7.92 | 8.41 | 4 | 6.89 | 5.68 |
| CC[C@H](C)[C@H](N)C(=O)N[C@H](C(=O)N[C@@H](Cc1c[nH]c2ccccc12)C(=O)N[C@@H](CC(C)C)C(=O)NCC(=O)N[C@@H](CC(C)C)C(=O)N[C@@H](CCCNC(=N)N)C(=O)N[C@@H](CO)C(=O)N[C@@H](CC(C)C)C(=O)N[C@@H](CCCNC(=N)N)C(=O)O)C(C)C [Her2/neu.450.V2] | – | – | – | 7.96 | 8.14 | 6.63 | 4 | – | 6.71 |
| CC[C@H](C)[C@H](N)C(=O)N[C@@H](CO)C(=O)N[C@@H](Cc1c[nH]c2ccccc12)C(=O)N[C@@H](CC(C)C)C(=O)NCC(=O)N[C@@H](CC(C)C)C(=O)N[C@@H](CCCNC(=N)N)C(=O)N[C@@H](CO)C(=O)N[C@@H](CC(C)C)C(=O)N[C@@H](CCCNC(=N)N)C(=O)O [Her2/neu.450] | – | – | – | 8.16 | 7.14 | 6.57 | 4 | 5.65 | 6.65 |
| CC(C)C[C@H](NC(=O)[C@H](CCC(N)=O)NC(=O)[C@H](CC(=O)O)NC(=O)[C@H](Cc1c[nH]c2ccccc12)NC(=O)[C@@H]1CCCN1C(=O)[C@@H](NC(=O)[C@@H](NC(=O)[C@@H](N)Cc1c[nH]cn1)C(C)C)C(C)C)C(=O)N[C@@H](Cc1ccccc1)C(=O)N[C@@H](CCCCN)C(=O)O [Her2/neu.478.V2K10] | – | – | – | < 5.00 | 8.05 | 6.74 | 3 | 6.43 | < 5.00 |
| CC(C)C[C@H](NC(=O)[C@H](CCC(N)=O)NC(=O)[C@H](CC(=O)O)NC(=O)[C@H](Cc1c[nH]c2ccccc12)NC(=O)[C@@H]1CCCN1C(=O)[C@@H](NC(=O)[C@@H](NC(=O)[C@@H](N)Cc1c[nH]cn1)[C@@H](C)O)C(C)C)C(=O)N[C@@H](Cc1ccccc1)C(=O)N[C@@H](CCCNC(=N)N)C(=O)O [Her2/neu.478] | – | – | – | 7.72 | 8.40 | 5.50 | 4 | 7.08 | 7.06 |
| CC[C@H](NC(=O)[C@H](CC(N)=O)NC(=O)[C@@H](NC(=O)[C@@H](N)CC)C(C)C)C(=O)N[C@@H](CO)C(=O)N[C@@H](CCC(N)=O)C(=O)N[C@@H](Cc1ccccc1)C(=O)N[C@@H](CC(C)C)C(=O)N[C@@H](CCCCN)C(=O)O [Her2/neu.528.B1B4K9] (H-[Abu]VN[Abu]SQFLK-OH) | – | – | – | 7.22 | 7.82 | 7.47 | 4 | 7.66 | 5.37 |
| CC[C@H](C)[C@H](NC(=O)CNC(=O)[C@H](Cc1ccccc1)NC(=O)[C@@H](NC(=O)[C@@H](NC(=O)CNC(=O)[C@H](CC(C)C)NC(=O)[C@@H](NC(=O)[C@@H](N)C(C)C)C(C)C)C(C)C)C(C)C)C(=O)O [Her2/neu.665] | – | – | recognized by CTLs from only one of the two patients | – | – | – | – | – | – |
| CC(C)C[C@H](NC(=O)[C@H](CC(C)C)NC(=O)[C@@H](N)CCCNC(=N)N)C(=O)N[C@@H](CCC(N)=O)C(=O)N[C@@H](CCC(=O)O)C(=O)N[C@H](C(=O)N[C@@H](CCC(=O)O)C(=O)N[C@@H](CC(C)C)C(=O)N[C@H](C(=O)O)C(C)C)[C@@H](C)O [Her2/neu.689] | – | – | is also an epitope | – | – | – | – | – | – |
| CSCC[C@H](NC(=O)[C@@H](N)C(C)C)C(=O)N[C@@H](C)C(=O)NCC(=O)N[C@H](C(=O)NCC(=O)N[C@@H](CO)C(=O)N1CCC[C@H]1C(=O)N[C@@H](Cc1ccc(O)cc1)C(=O)N[C@H](C(=O)O)C(C)C)C(C)C [Her2/neu.773] | – | – | recognized by CTLs from only one of the two patients | – | – | – | – | – | – |
| CC(C)C[C@H](NC(=O)[C@H](CCC(N)=O)NC(=O)[C@@H](NC(=O)[C@@H](NC(=O)[C@H](CO)NC(=O)[C@@H](NC(=O)[C@H](CC(C)C)NC(=O)[C@@H](N)CS)[C@@H](C)O)[C@@H](C)O)C(C)C)C(=O)N[C@H](C(=O)O)C(C)C [Her2/neu.789] | – | – | recognized peptide-pulsed targets only | – | – | – | – | – | – |
| CC(C)C[C@H](NC(=O)[C@@H]1CCCN1C(=O)[C@@H](NC(=O)[C@H](C)N)C(C)C)C(=O)N[C@@H](CC(=O)O)C(=O)N[C@@H](CO)C(=O)N[C@H](C(=O)N[C@@H](Cc1ccccc1)C(=O)N[C@@H](Cc1ccc(O)cc1)C(=O)N[C@@H](CCCNC(=N)N)C(=O)O)[C@@H](C)O [Her2/neu.997.V2] | – | – | – | 4.52 | 7.14 | – | 2 | 7.06 | 5.58 |
| HVVPWDQLFR [Her2/neu.478.V2] | – | – | – | – | 8.44 | 5.13 | 3 | 5.88 | 6.71 |
| TILWKDIFHK [Her2/neu.166] | – | – | – | 6.31 | 6.70 | 6.59 | – | 8.77 | 6.16 |
